# According to PubChem BioAssay (NCI):
#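 At the GI50, growth is halved. TGI marks complete inhibition of growth.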
# Columns and labels:
# Assay in all cases: NCI anticancer screen, dose series, 384-well format
# NCI-H23 lung = test system: NCI-H23 lung
# NCI-H322M lung = test system: NCI-H322M lung
# NCI-H460 NSCLC = test system: NCI-H460 NSCLC
# NCI-H522 lung = test system: NCI-H522 lung
# NCI/ADR-RES ovarian = test system: NCI/ADR-RES ovarian
# OVCAR-3 ovarian = test system: OVCAR-3 ovarian
# OVCAR-4 ovarian = test system: OVCAR-4 ovarian
# OVCAR-5 ovarian = test system: OVCAR-5 ovarian
# OVCAR-8 ovarian = test system: OVCAR-8 ovarian
# PC-3 prostate = test system: PC-3 prostate
# RPMI-8226 leukemia = test system: RPMI-8226 leukemia
# RXF 393 renal = test system: RXF 393 renal
# SF-268 CNS = test system: SF-268 CNS
# SF-295 CNS = test system: SF-295 CNS
# SF-539 CNS = test system: SF-539 CNS
# SK-MEL-2 melanoma = test system: SK-MEL-2 melanoma
# SK-MEL-28 melanoma = test system: SK-MEL-28 melanoma
# SK-MEL-5 melanoma = test system: SK-MEL-5 melanoma
# SK-OV-3 ovarian = test system: SK-OV-3 ovarian
# SN12C renal = test system: SN12C renal
# SNB-19 CNS = test system: SNB-19 CNS
# SR leukemia = test system: SR leukemia
# SW-620 colon = test system: SW-620 colon
# T-47D breast = test system: T-47D breast
# TK-10 renal = test system: TK-10 renal
# U251 glioblastoma = test system: U251 glioblastoma
# UACC-257 melanoma = test system: UACC-257 melanoma
# UACC-62 melanoma = test system: UACC-62 melanoma
# UO-31 renal = test system: UO-31 renal
smiles,measurement,setting,value
Cc1c(N(C(=O)c2cc(-c3cc(Cl)ccc3C(=O)N3Cc4ccccc4C[C@H]3CN3CCOCC3)n(C)c2C)c2ccc(O)cc2)cc(C#N)n1C,TGI,NCI-H23 lung,> 100 µM
same,GI50,NCI-H322M lung,24.7 µM
same,TGI,NCI-H322M lung,> 100 µM
same,GI50,NCI-H460 NSCLC,6.2 µM
same,TGI,NCI-H460 NSCLC,> 100 µM
same,GI50,NCI-H522 lung,12.8 µM
same,TGI,NCI-H522 lung,36.8 µM
same,GI50,NCI/ADR-RES ovarian,50.5 µM
same,TGI,NCI/ADR-RES ovarian,> 100 µM
same,GI50,OVCAR-3 ovarian,3.87 µM
same,TGI,OVCAR-3 ovarian,18.9 µM
same,GI50,OVCAR-4 ovarian,5.99 µM
same,TGI,OVCAR-4 ovarian,37.5 µM
same,GI50,OVCAR-5 ovarian,28 µM
same,TGI,OVCAR-5 ovarian,> 100 µM
same,GI50,OVCAR-8 ovarian,8.66 µM
same,TGI,OVCAR-8 ovarian,> 100 µM
same,GI50,PC-3 prostate,7.32 µM
same,TGI,PC-3 prostate,65.6 µM
same,GI50,RPMI-8226 leukemia,1.26 µM
same,TGI,RPMI-8226 leukemia,2.52 µM
same,GI50,RXF 393 renal,0.886 µM
same,TGI,RXF 393 renal,3.92 µM
same,GI50,SF-268 CNS,22 µM
same,TGI,SF-268 CNS,> 100 µM
same,GI50,SF-295 CNS,13.4 µM
same,TGI,SF-295 CNS,62.6 µM
same,GI50,SF-539 CNS,9.73 µM
same,TGI,SF-539 CNS,> 100 µM
same,GI50,SK-MEL-2 melanoma,5.97 µM
same,TGI,SK-MEL-2 melanoma,20 µM
same,GI50,SK-MEL-28 melanoma,17.1 µM
same,TGI,SK-MEL-28 melanoma,67.1 µM
same,GI50,SK-MEL-5 melanoma,9.04 µM
same,TGI,SK-MEL-5 melanoma,28.4 µM
same,GI50,SK-OV-3 ovarian,11.5 µM
same,TGI,SK-OV-3 ovarian,45.2 µM
same,GI50,SN12C renal,9.51 µM
same,TGI,SN12C renal,> 100 µM
same,GI50,SNB-19 CNS,7.72 µM
same,TGI,SNB-19 CNS,> 100 µM
same,GI50,SR leukemia,1.46 µM
same,TGI,SR leukemia,2.87 µM
same,GI50,SW-620 colon,11.3 µM
same,TGI,SW-620 colon,25.7 µM
same,GI50,T-47D breast,6.85 µM
same,TGI,T-47D breast,> 100 µM
same,GI50,TK-10 renal,12.5 µM
same,TGI,TK-10 renal,58.6 µM
same,GI50,U251 glioblastoma,7.69 µM
same,TGI,U251 glioblastoma,> 100 µM
same,GI50,UACC-257 melanoma,10.1 µM
same,TGI,UACC-257 melanoma,28.5 µM
same,GI50,UACC-62 melanoma,6.3 µM
same,TGI,UACC-62 melanoma,27.3 µM
same,GI50,UO-31 renal,10.9 µM
same,TGI,UO-31 renal,> 100 µM
